Here are results for 22 compounds from US8883782B2, “Spiro-tetracyclic ring compounds as beta-secretase modulators and methods of use” (Amgen Inc., priority 2010, dated 2014).

Where two headings read alike, the source gives them in different places.

Experiment [1] addresses Beta Secretase enzyme (BACE) (Homo sapiens, UniProt P56817). Kind of experiment: In vitro enzymatic BACE FRET (fluorescence resonance energy transfer) assay. It is filed as biochemical. The settings on record: average IC50, enzyme assay; read-out: BACE 1 FRET assay. Here is the method: In Vitro Enzymatic Bace Fret (Fluorescence Resonance Energy Transfer) Assay (Enzyme Assay Data in the Example Table I)
The assay buffer used in this screen is 0.05 M acetate, pH 4.2, 10% DMSO final, 100 uM genapol (which is a nonionic detergent, below its Critical Micelle Concentration). […] This assay is effectively started by the addition of FRET substrate (50 nM) and the combination is incubated for one hour. The FRET assay is terminated with by addition of Tris buffer, which raises the pH to neutrality, and the fluorescence is determined. The FRET substrate is a peptide with commercially available fluorophore and quencher, on opposite sides of the BACE cleavage site.

Experiment [2] concerns Aβ40 in conditioned medium of cells stably expressing Amyloid Precursor Protein (APP). Kind of experiment: In vitro BACE cell-based assay (Aβ40 in conditioned medium, sandwich ELISA). The following applies: read-out: HEK cell assay. The method, then: In Vitro BACE Cell-Based Assay
The cell-based assay measures inhibition or reduction of Aβ40 in conditioned medium of test compound treated cells expressing amyloid precursor protein.
Cells stably expressing Amyloid Precursor Protein (APP) were plated at a density of 40K cells/well in 96 well plates (Costar). The cells were cultivated for 24 hours at 37° C. and 5% CO2 in DMEM supplemented with 10% FBS. The test compounds were then added to cells in 10-point dose response concentrations with the starting concentration being either 100 μM or 10 μM. The compounds were diluted from stock solutions in DMSO and the final DMSO concentration of the test compounds on cells was 0.1%. […] The IC50 of the compound was calculated from the percent of control or percent inhibition of Aβ 40 as a function of the concentration of the test compound.
The sandwich ELISA to detect Aβ 40 was performed in 96 well microtiter plates, which were pre-treated with goat anti-rabbit IgG (Pierce). The capture and detecting antibody pair that were used to detect Aβ 40 from cell supernatants were affinity purified pAb40 (Biosource) and biotinylated 6E10 (Signet Labs Inc.), respectively. The optimal concentration for the pAb40 antibody was 3 μg/ml in Superblock/TBS (Pierce) that was supplemented with 0.05% Tween 20 (Sigma).
Cellular supernatants were incubated with the capture antibody for 3 h at 4° C., followed by 3 wash steps in TBS-tween (0.05%). The detecting antibody incubation was for 2 h at 4° C., again followed by the wash steps as described previously. The final readout of the ELISA is Time-Resolved Fluorescence (counts per minute) using Delfia reagents Streptavidin-Europium and Enhancement solutions (Perkin Elmer) and the Victor 2 multilabel counter (Perkin Elmer).
A general note: An ELISA detects its analyte on a solid surface through an enzyme-linked reagent.

Setting [3] is: Homo sapiens, HEK293, average IC50, HEK cells.
[4] abbreviates: Homo sapiens, HEK293, average IC50.

Sequence of Beta Secretase enzyme (BACE) (P56817 46-501, species assumed): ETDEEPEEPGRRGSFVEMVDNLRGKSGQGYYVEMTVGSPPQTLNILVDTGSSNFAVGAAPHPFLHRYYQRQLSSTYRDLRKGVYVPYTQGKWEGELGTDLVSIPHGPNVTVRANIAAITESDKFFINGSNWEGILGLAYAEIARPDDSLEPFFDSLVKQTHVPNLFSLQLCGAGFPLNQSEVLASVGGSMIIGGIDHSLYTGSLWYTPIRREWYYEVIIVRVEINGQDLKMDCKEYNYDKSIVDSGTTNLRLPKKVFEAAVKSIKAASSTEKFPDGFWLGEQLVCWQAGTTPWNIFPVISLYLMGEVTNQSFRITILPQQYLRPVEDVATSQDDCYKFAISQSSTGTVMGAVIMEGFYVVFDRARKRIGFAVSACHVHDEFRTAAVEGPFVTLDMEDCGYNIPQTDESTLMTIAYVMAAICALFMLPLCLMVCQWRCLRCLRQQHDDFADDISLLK

For `NC1=N[C@@]2(CO1)c1cc(-c3c(F)ccnc3F)ccc1Oc1cnc([C@H]3CCCOC3)cc12` (mixture of isomers) [Example 909, (5S)-7-(2,4-difluoro-3-pyridinyl)-3-((3R)-tetrahydro-2H-pyran-3-yl)spiro[chromeno[2,3-c]pyridine-5,4′-[1,3]oxazol]-2′-amine, (5S)-7-(2,4-difluoro-3-pyridinyl)-3-((3S)-tetrahydro-2H-pyran-3-yl)spiro[chromeno[2,3-c]pyridine-5,4′-[1,3]oxazol]-2′-amine], the IC50 in experiment [1] stood at 19.8 nM; in experiment [2] it was 266 nM. As to `CN(C)c1cc2c(cn1)Oc1ccc(-c3cccnc3F)cc1C21COC(N)=N1` (racemic) [Example 706], the IC50 in experiment [1] came to 22.4 nM; in experiment [2] (setting [3]) it was 205 nM. For `Cc1cc(-c2cc3c(c(F)n2)Oc2ccc(-c4cccnc4F)cc2[C@]32CSC(N)=N2)ccn1` (racemic) [Example 1032, (5R)-1-fluoro-7-(2-fluoro-3-pyridinyl)-3-(2-methyl-4-pyridinyl)spiro[chromeno[2,3-c]pyridine-5,4′-[1,3]thiazol]-2′-amine, (5S)-1-fluoro-7-(2-fluoro-3-pyridinyl)-3-(2-methyl-4-pyridinyl)spiro[chromeno[2,3-c]pyridine-5,4′-[1,3]thiazol]-2′-amine], the IC50 in experiment [1] was found to be 0.4 nM; in experiment [2] it was 3 nM. As to `NC1=N[C@@]2(CS1)c1cc(-c3cccnc3F)ccc1Oc1cnc(N3CCC(F)(F)C3)cc12` (single isomer, unassigned) [Example 704], the IC50 in experiment [1] is 0.3 nM; in experiment [2] (setting [3]), 12 nM.

Consider `NC1=N[C@]2(CO1)c1cc(-c3cccnc3)ccc1Oc1c2cc(C2=CCOCC2)c(F)c1F` (single isomer, unassigned) [Example 1006], for which the results for the IC50 in experiment [1] and in experiment [2] (setting [4]) were 15.2 nM and 627 nM, respectively. With `C[C@@](C#Cc1cnc2c(c1)[C@]1(COC(N)=N1)c1cc(-c3cccnc3F)ccc1O2)(CO)CCl` (single isomer, unassigned) [Example 1014], the IC50 was found to be 2.2 nM in experiment [1] and 21 nM in experiment [2]. For `COC[C@H]1SC(N)=NC12c1cc(-c3cccnc3F)ccc1Oc1cnc(-c3ccnc(F)c3)cc12` (single isomer, unassigned) [Example 1093, (4′S/R,5′S)-7-(2-fluoropyridin-3-yl)-3-(2-fluoropyridin-4-yl)-5′-(methoxymethyl)-5′H-spiro[chromeno[2,3-c]pyridine-5,4′-thiazol]-2′-amine], the values for the IC50 in experiment [1] and in experiment [2] were 5.7 nM and 495 nM, respectively. In the same order, the values of `COC[C@H]1SC(N)=NC12c1cc(-c3cccnc3F)ccc1Oc1cnc(-c3ccnc(F)c3)cc12` (single isomer, unassigned) [Example 1095, (4′S/R,5′S)-7-(2-fluoropyridin-3-yl)-3-(2-fluoropyridin-4-yl)-5′-(methoxymethyl)-5′H-spiro[chromeno[2,3-c]pyridine-5,4′-thiazol]-2′-amine] are 573 nM and 5990 nM. Turning to `CC1(COc2cnc3c(c2)C2(COC(N)=N2)c2cc(-c4cc(Cl)ccc4F)ccc2O3)OCCO1` (stereo not drawn) [Example 87, 7-(5-chloro-2-fluorophenyl)-3-((2-methyl-1,3-dioxolan-2-yl)methoxy)-5′H-spiro[chromeno[2,3-b]pyridine-5,4′-oxazol]-2′-amine], the IC50 in experiment [1] was determined as 8.4 nM; in experiment [2] (setting [4]) it was 106 nM.

For the compound `C[Si](C)(C)c1cc2c(nc1F)Oc1ccc(Br)cc1[C@@]21COC(N)=N1` [Example 90, (5S)-7-bromo-2-fluoro-3-(trimethylsilyl)spiro[chromeno[2,3-b]pyridine-5,4′-[1,3]oxazol]-2′-amine], the figures for the IC50 in experiment [1] and in experiment [2] (setting [4]) were 862 nM and 10000 nM, respectively. As to `CC(C)(O)CCc1cc(F)c2c(c1)[C@]1(COC(N)=N1)c1cc(-c3cccnc3F)ccc1O2` [Example 92, (S)-4-(2-amino-5′-fluoro-2′-(2-fluoropyridin-3-yl)-5H-spiro[oxazole-4,9′-xanthene]-7′-yl)-2-methylbutan-2-ol], the IC50 in experiment [1] is 1 nM; in experiment [2] (setting [4]) it was 4.2 nM. In the same order, the values of `CC(C)(C#N)COc1cc(F)c2c(c1)[C@]1(COC(N)=N1)c1cc(-c3cnccn3)ccc1O2` [Example 93, (S)-3-(2-amino-5′-fluoro-2′-(pyrazin-2-yl)-5H-spiro[oxazole-4,9′-xanthene]-7′-yloxy)-2,2-dimethylpropanenitrile] are 2.8 nM and 14.6 nM. In the same order, the values of `C[C@@H]1CN(c2cc(F)c3c(c2)[C@]2(COC(N)=N2)c2cc(-c4cnccn4)ccc2O3)C[C@H](C)O1` [Example 94, (S)-2′-((2R,6S)-2,6-dimethylmorpholino)-4′-fluoro-7′-(pyrazin-2-yl)-5H-spiro[oxazole-4,9′-xanthen]-2-amine] are 6.3 nM and 19.7 nM. The corresponding values for `CC(C)(O)CCc1ccc2c(c1)[C@]1(COC(N)=N1)c1cc(-c3cncnc3)c(F)cc1O2` [Example 96, (R)-4-(2-amino-3′-fluoro-2′-(pyrimidin-5-yl)-5H-spiro[oxazole-4,9′-xanthene]-7′-yl)-2-methylbutan-2-ol] are 10.7 nM and 22.8 nM. For the compound `CC1(C#Cc2cnc3c(c2)C2(CSC(N)=N2)c2cc(-c4cccnc4F)ccc2O3)COC1` (stereo not drawn) [Example 98], the IC50 stood at 2 nM in experiment [1] and 4.6 nM in experiment [2] (setting [3]). Regarding `CCC(C)CSc1cnc2c(c1)[C@]1(COC(N)=N1)c1cc(-c3cccnc3)ccc1O2` (stereo partly drawn) [Example 99, (4′S)-3-(2-methylbutylthio)-7-(pyridin-3-yl)-5′H-spiro[chromeno[2,3-b]pyridine-5,4′-oxazol]-2′-amine], the IC50 in experiment [1] is 17.3 nM; in experiment [2] (setting [4]), 302 nM. As for `CC1(CCc2cc(F)c3c(c2)[C@]2(COC(N)=N2)c2cc(-c4cccnc4F)ccc2O3)COC1` [Example 101, (S)-4′-fluoro-7′-(2-fluoropyridin-3-yl)-2′-(2-(3-methyloxetan-3-yl)ethyl)-5H-spiro[oxazole-4,9′-xanthen]-2-amine], the results for the IC50 in experiment [1] and in experiment [2] (setting [3]) were 0.5 nM and 4.5 nM, respectively. The corresponding values for `CC(C)(C)COc1cc2c(cn1)Oc1ccc(-c3cccnc3F)cc1C21COC(N)=N1` (stereo not drawn) [Example 102, 7-(2-fluoropyridin-3-yl)-3-(neopentyloxy)-5′H-spiro[chromeno[2,3-c]pyridine-5,4′-oxazol]-2′-amine 2,2,2-trifluoroacetate] are 1.1 nM and 26.2 nM. With `CC1(C#Cc2cnc3c(c2)[C@]2(COC(N)=N2)c2cc(-c4cnccc4F)ccc2O3)COC1` [Example 104, (S)-7-(4-fluoropyridin-3-yl)-3-((3-methyloxetan-3-yl)ethynyl)-5′H-spiro[chromeno[2,3-b]pyridine-5,4′-oxazol]-2′-amine], the IC50 in experiment [1] came to 1.1 nM; in experiment [2] (setting [4]), 12 nM. Consider `NC1=NC2(CO1)c1cc(-c3cccnc3F)ccc1Oc1c(F)cc(C3=CCOCC3)nc12` (stereo not drawn) [Example 105, 2-(3,6-dihydro-2H-pyran-4-yl)-4-fluoro-8-(2-fluoropyridin-3-yl)-5′H-spiro[chromeno[3,2-b]pyridine-10,4′-oxazol]-2′-amine], for which the figures for the IC50 in experiment [1] and in experiment [2] (setting [3]) were 3.5 nM and 14.4 nM, respectively.

As to “(4S)-4′-fluoro-2′-methoxy-7′-(5-pyrimidinyl)spiro[1,3-thiazole-4,9′-xanthen]-2-amine [Example 216]”, in experiment [2] (average IC50), the IC50 amounted to 45 nM. Still for that read-out and setting: the result for “(4S)-7′-bromo-4′-fluoro-2′-methoxyspiro[1,3-thiazole-4,9′-xanthen]-2-amine [Example 218]” reads 128 nM.
